Here are results for 23 compounds from PubChem BioAssay (NCI).

Several values for one entry are separate records, joined by “and”; a condition that tells them apart may be missing. Equal values may be shown once.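 96-well plates; 48 h exposure; 5 concentrations. Endpoints by linear interpolation between flanking doses. Not reached: highest tested concentration assigned. Here, GI50 denotes the concentration required for 50% inhibition of growth. TGI is the concentration that stops growth completely.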

Assay in all cases: NCI-60 cell line screen, 48 h
The subject of assay [1] is ACHN renal.
In assay [2] the test system is EKVX NSCLC.
For assay [3], the system named is MCF7 breast.
Assay [4] relates to MOLT-4 leukemia.
Assay [5] deals with NCI-H226 lung.
Assay [6] concerns SF-295 CNS.
Assay [7] deals with SK-OV-3 ovarian.
Assay [8] concerns SR leukemia.
Assay [9] concerns SW-620 colon.
The test system of assay [10] is TK-10 renal.

In the case of `COc1ccc(-n2cnc3c(NC(CCSC)C(=O)O)ncnc32)cc1` (stereo not given), the TGI in [1], in [2], in [3], in [4], in [5] and in [6] was above 100 µM in each case. For the same compound, the TGI in assay [7], in assay [8], in [9] and in assay [10] was above 100 µM throughout.

As for `COc1nc(N)c(N=CC(OC(C)=O)C(OC(C)=O)C(COC(C)=O)OC(C)=O)c(=O)n1C` (stereo not given), the TGI in [1], in assay [2], in assay [3], in assay [4], in assay [5] and in assay [6] was above 100 µM in each case. Also, the TGI in [7], in [8], in [9] and in assay [10] was above 100 µM in each case.

As for `CCNC1=C(NC(=O)CC)C(=O)c2ccccc2C1=O`, the TGI in [1], in [2], in assay [3], in [4], in assay [5] and in [6] was above 100 µM each time. Also, the TGI in assay [7], in assay [8], in [9] and in assay [10] was above 100 µM throughout.

Regarding `Cc1ccc(/C(O)=C/C(=O)C(=O)NN=C(c2ccccc2)c2ccccc2)cc1`, the TGI in assay [1], in [2], in [3], in assay [4], in assay [5] and in [6] was above 100 µM each time. Also, the TGI in [7], in [8], in assay [9] and in assay [10] was above 100 µM throughout.

Consider `CCOc1cc(NC(C)=O)ccc1C(=O)NN1C(=O)C(Cl)C1c1ccco1` (stereo not given), for which the TGI in assay [1] is 29.1 µM; in assay [2] it was 36.2 µM; in [3], 26.8 µM; in [4], 29.8 µM; in assay [5] it was above 100 µM; in assay [6] it was 30.5 µM. In addition, the TGI was 38.2 µM in assay [7], 35.9 µM in assay [8], above 100 µM in assay [9] and 31.3 µM in [10].

With `C[C@H]1C=C2[C@@H]3CC(C)(C(=O)O)CC[C@]3(C)CC[C@]2(C)[C@]2(C)CC[C@H]3C(C)(C)[C@@H](OC(=O)c4cccc5c(=O)c6ccccc6[nH]c45)CC[C@]3(C)[C@@H]12` (stereo not given in full), the TGI in [1], in assay [2], in assay [3], in [4], in assay [5] and in [6] was above 100 µM throughout. In addition, the TGI in assay [7], in assay [8], in assay [9] and in assay [10] was above 100 µM in each case.

Turning to `c1ccc2c3c([nH]c2c1)C1CCCN1CC3` (stereo not given), the TGI in [1], in assay [2], in [3], in [4], in [5] and in [6] was above 10 µM throughout. The TGI in [7], in assay [8], in assay [9] and in assay [10] was above 10 µM throughout.

Consider `OC(c1ccc(-c2ccccc2)cc1)C(F)(F)c1nc2ccccc2o1` (stereo not given), for which the TGI in [1], in assay [2], in assay [3], in assay [4], in assay [5] and in assay [6] was above 100 µM in each case. Further, the TGI in assay [7], in [8], in [9] and in assay [10] was above 100 µM each time.

With `CN(C)CCCN1c2ccccc2CCc2ccc([N+](=O)[O-])cc21`, the TGI in assay [1] is above 100 µM; in [2] it was above 100 µM; in [3], 34.1 µM; in [4], above 100 µM; in assay [5], 90.4 µM; in [6], 34.3 µM. Moreover, the TGI in [7] was above 100 µM; in assay [8] it was above 100 µM; in assay [9], above 100 µM; in [10] it was 41.8 µM.

As for `CCOC(=O)CSc1nnc(C(Sc2nc(-c3ccccc3)c(-c3ccccc3)[nH]2)C(C)C)n1-c1ccccc1` (stereo not given), the TGI in assay [1] is above 31.6 µM; in assay [2], above 31.6 µM; in [3] it was above 100 µM; in assay [4], 50 µM; in [5], 26 µM; in assay [6] it was above 10 µM. Also, the TGI in assay [7] was above 10 µM; in assay [8] it was above 89.6 µM; in assay [9], above 31.6 µM; in [10] it was above 31.6 µM.

Regarding `Cc1ccc2c(=O)cc(-c3ccc(-c4ccccc4)s3)[nH]c2n1`, the TGI in assay [1] was above 100 µM; in assay [2], above 81.4 µM; in assay [3], above 100 µM; in assay [4], above 78.9 µM; in assay [5] it was above 100 µM; in assay [6], 99.5 µM. Further, the TGI in assay [7] was above 100 µM; in [8], 8.35 µM; in [9], above 100 µM; in [10] it was above 91.4 µM.

Regarding `COc1ccc(C(=O)c2[nH]c(Nc3ccc(Cl)cc3)c(C(=S)Nc3ccccc3)c2N)cc1`, the TGI in [1], in assay [2], in assay [3], in assay [4], in assay [5] and in assay [6] was above 100 µM in each case. The TGI in [7], in [8], in assay [9] and in [10] was above 100 µM each time.

As for `COc1cccc(N2C(=O)C3c4[nH]c5ccc(C)cc5c4C4CCC(C(C)(C)C)CC4C3C2=O)c1` (stereo not given), the TGI was above 10 µM in [1]; above 10 µM in assay [2]; above 10 µM in [3]; 5.04 µM in assay [4]; 8.78 µM in assay [5]; above 10 µM in assay [6]. In addition, the TGI was above 10 µM in [7], 4.03 µM in assay [8], above 10 µM in assay [9] and above 10 µM in [10].

Take `CC[C@@H](/C=C\CCC(=O)C[C@H](O)CCC=C(C)C)O[Si](C(C)C)(C(C)C)C(C)C`: the TGI in assay [1], in [2], in [3], in [4], in assay [5] and in [6] was above 100 µM each time. The TGI in assay [7], in [8], in assay [9] and in assay [10] was above 100 µM each time.

In the case of `COC(=O)c1c(O)ccc2c1C1(Cc3ccccc3C1=O)C(O)O2` (stereo not given), the TGI was 55.7 µM in [1]; 68.5 µM in [2]; above 100 µM in assay [3]; 21.5 µM in assay [4]; 35.5 µM in assay [5]; above 100 µM in assay [6]. Also, the TGI was 57.8 µM in assay [7], 25.3 µM in [8], above 100 µM in assay [9] and 52.6 µM in assay [10].

Consider `Cc1ccc(/C=C2\CCCC(CN3CCCCC3)C2=O)cc1` (stereo not given), for which the TGI in assay [1] was 16.4 µM; in assay [2], 32.7 µM; in assay [3], 2.1 µM; in [4] it was above 100 µM; in assay [5], 5.99 µM; in assay [6], 30.9 µM. The TGI in [7] was 30.1 µM; in [8], above 100 µM; in assay [9] it was 3.14 µM; in assay [10] it was 7.44 µM.

As for `CCN(CC)CCNCc1cc(Cl)cc2c1OCOC2`, the TGI in assay [1], in assay [2], in [3], in [4], in assay [5] and in [6] was above 10 µM each time. The TGI in [7], in [8], in assay [9] and in assay [10] was above 10 µM each time.

As for `CC(C)[C@@H]1ON1C(C)c1ccccc1` (stereo not given in full), the TGI in assay [1], in [2], in assay [3], in assay [4], in assay [5] and in [6] was above 100 µM throughout. Besides, the TGI in assay [7], in assay [8], in assay [9] and in assay [10] was above 100 µM each time.

With `CC(C)(CC(O)C#N)/[N+]([O-])=[N+](\[O-])C(C)(C)CC(O)C#N` (stereo not given), the TGI was 74.5 µM in assay [1]; above 100 µM in [2]; 65.5 µM in assay [3]; 34.5 µM in assay [4]; 77 µM in [5]; above 100 µM in assay [6]. Moreover, the TGI in assay [7] is above 100 µM; in assay [8], 49.5 µM; in [9] it was 34.1 µM; in [10] it was 96 µM.

`CC(C)CN=C(N)N=C(N)N`: the TGI in [1], in assay [2], in assay [3], in assay [4], in assay [5] and in [6] was above 100 µM each time. In addition, the TGI in assay [7], in [8], in assay [9] and in assay [10] was above 100 µM throughout.

As to `C/C1=C\[C@@H](O)C(=O)/C=C/C=C\c2csc(n2)[C@@H](C)NC(=O)C[C@@]2(CC1)S(=O)SC(=O)[C@]2(C)O` (stereo not given in full), the GI50 in [1] was 0.00433 µM; in [4], above 100 µM; in assay [5], 0.0254 µM; in assay [6], 0.053 µM; in assay [7], 0.181 µM; in assay [8], above 100 µM. Besides, the GI50 in assay [10] is 0.0131 µM. In addition, the TGI in assay [1] was 0.038 µM and 0.0122 µM; in [2], 0.612 µM; in assay [3], 0.0101 µM; in assay [5] it was 0.558 µM and 0.327 µM; in [6] it was 0.59 µM and 3.73 µM; in [7], 0.472 µM and 2.74 µM. Also, the TGI in [9] was 0.0143 µM; in assay [10], 0.861 µM and 0.138 µM.

With `COC12c3ccccc3-c3ccccc3C1[C@H]1C(=O)OC(=O)[C@H]12` (stereo not given in full), the TGI in assay [1], in [2], in assay [3], in [4], in [5] and in assay [6] was above 10 µM throughout. The TGI in assay [7], in assay [8], in assay [9] and in [10] was above 10 µM each time.

For the compound `CCOc1ccc(-n2nnc3c(N)nc(N)nc32)cc1`, the TGI in assay [1], in assay [2], in [3], in assay [4], in assay [5] and in [6] was above 100 µM each time. Moreover, the TGI in assay [7], in [8], in assay [9] and in assay [10] was above 100 µM each time.
